# According to patent US6785989B2, “Methods and apparatus for removal of wrinkles from fabrics” (The Procter & Gamble Company, priority 2000, dated 2004):
# Experiment: Perfume component interaction with cyclodextrin (CD interaction)
# Type: physicochemical
# Conditions: perfume component complexing with cyclodextrin
# Text: The following table illustrates the molecular weight property of some of the preferred perfume versus non-preferred perfume components.
row,Compound,CD interaction
1,CC(C)(O)CCCC1=CCC(C=O)CC1 (centres unmarked) [Lyral],weak
2,CCC(C)(O)CCCC(C)C (centres unmarked) [Tetrahydrolinalol],significant
3,O=C(Cc1ccccc1)OCCc1ccccc1 [Phenyl-Ethyl-Phenyl Acetate],weak
4,"CC(=O)OC1CCC(C(C)(C)C)CC1 (centres unmarked) [Vertenex, para-tert-butylcyclohexyl acetate]",strong
5,CCOC(=O)c1ccccc1C(=O)OCC [Diethyl Phthalate],weak
6,CC(=O)OC1CC2CC1C1CC=CC21 (centres unmarked) [Flor Acetate],strong
7,CCCCCCCCCCCCCC(=O)OC(C)C [Iso-propyl Myristate],weak
8,CC(=O)C(C)=C(C)C(C)C(C)(C)C (centres unmarked) [Koavone],strong
9,CC(=O)C1(C)CC2=C(CCCC2(C)C)CC1C (centres unmarked) [Iso-E Super],weak
10,CC1COCc2cc3c(cc21)C(C)(C)C(C)C3(C)C (centres unmarked) [Galaxolide],weak
11,CCCCCC1C(=O)CCC1CC(=O)OC (centres unmarked) [Methyl Dihydro Jasmonate],weak
12,CC(=O)OC(C)(C)C1CC=C(C)CC1 (centres unmarked) [Terpinyl Acetate],significant
13,CCC(=O)OC1CC2CC1C1CC=CC21 (centres unmarked) [Frutene],strong
14,a-Me Ionone,strong
15,CCCCCCC(C=O)=Cc1ccccc1 [Hexyl cinnamic Aldehyde],weak
16,CC(C=O)Cc1ccc(C(C)C)cc1 (centres unmarked) [Cymal],strong
17,CCCCCCOC(=O)c1ccccc1O [Hexyl Salicylate],weak
18,"CC(C=O)Cc1ccc(C(C)(C)C)cc1 (centres unmarked) [Lilial, p-t-bucinal]",strong
19,CC(=O)/C=C/C1C(C)=CCCC1(C)C (centres unmarked) [a-ionone],strong

# Experiment: not given
# Conditions: cited from earlier work
row,Compound,solubility in water
1,"[H]/N=C(\N/C(=N/[H])NCCCCCCNC(=N)NC(=N)Nc1ccc(Cl)cc1)Nc1ccc(Cl)cc1 [chlorhexidine diacetate, 1,1′-hexamethylene bis(5-(p-chlorophenyl)biguanide), reference compound]",about 1.8%
2,"CC(C)(O)C(Cl)(Cl)Cl [chlorobutanol, 1,1,1-Trichloro-2-methylpropan-2-ol]",about 0.8%
3,OCc1ccccc1 [benzyl alcohol],about 4%
4,"O=[N+]([O-])C1(Br)COCOC1 [Bronidox L, 5-bromo-5-nitro-1,3-dioxane]",about 0.46%
5,[Na+].[O-][n+]1ccccc1[S-] [sodium pyrithione],about 50%
6,"CC1(C)C(=O)N(CO)C(=O)N1CO [DMDM hydantoin, 1,3-bis(hydroxymethyl)-5,5-dimethyl-2,4-imidazolidinedione]",more than 50%
7,"[H]/N=C(\N/C(=N/[H])NCCCCCCNC(=N)NC(=N)Nc1ccc(Cl)cc1)Nc1ccc(Cl)cc1 [chlorhexidine digluconate, 1,1′-hexamethylene bis(5-(p-chlorophenyl)biguanide), reference compound]",about 70%
8,OCCc1ccccc1 [2-phenylethanol],about 2%
9,"ClC=CC[N+]12CN3CN(CN(C3)C1)C2.[Cl-] [Dowicil 200, 1-(3-Chlorallyl)-3,5,7-triaza-1-azoniaadamantane chloride]",freely soluble
10,OCCOc1ccccc1 [2-phenoxyethanol],about 2.67%
